Measured values: patent US20220119456A1, “ANTI-SARS-COV-2 FUSION PEPTIDES” (KING FAISAL UNIVERSITY, priority 2020, published 2022)
Where two headings read alike, the source gives them in different places. Where a SMILES comes first, the peptide text is derived from it.

Columns and labels:
[1] = test system: SARS-CoV-2 S pseudotyped VSV viral particles
[2] = test system: SARS-CoV-2; conditions: for reduction in SARS-CoV-2 plaques formation: 10 μM peptide, Vero E6 cells
[3] = test system: SARS-CoV-2 Spike-mediated cell-cell fusion
[4] = test system: SARS-CoV-2 S pseudotyped VSV viral particles; remark: listed apart in the source
[5] = test system: SARS-CoV-2 S pseudotyped VSV viral particles; remark: listed apart in the source
[6] = S pseudotyped VSV viral particles

SMILES | inhibition against the infection through the endocytosis pathway in VeroE6 cells [1] [%] | IC50 [1, 6] [nM] | reduction in SARS-CoV-2 plaques formation [2] | IC50 [3] [nM] | inhibition of TMPRSS2-dependent pseudovirus infection through plasma membrane [4] | IC50 [4, 6] [nM] | IC50 [5] [nM] | IC50 [2] [nM]
CC[C@H](C)[C@H](NC(=O)CNC(=O)[C@H](CO)NC(=O)[C@@H](NC(=O)[C@H](CC(=O)O)NC(=O)CNC(=O)[C@H](CC(C)C)NC(=O)[C@@H](NC(=O)[C@@H](N)Cc1c[nH]cn1)C(C)C)[C@@H](C)CC)C(=O)N[C@@H](CC(N)=O)C(=O)N[C@@H](C)C(=O)N[C@@H](CO)C(=O)N[C@H](C(=O)N[C@H](C(=O)N[C@@H](CCC(N)=O)C(=O)N[C@H](C(=O)N[C@@H](CCC(N)=O)C(=O)N[C@@H](CCCCN)C(=O)N[C@@H](CCC(=O)O)C(=O)N[C@H](C(=O)N[C@@H](CC(=O)O)C(=O)N[C@@H](CCCNC(=N)N)C(=O)N[C@@H](CC(C)C)C(=O)N[C@@H](CC(N)=O)C(=O)N[C@@H](CCC(=O)O)C(=O)N[C@H](C(=O)N[C@@H](C)C(=O)N[C@@H](CCCCN)C(=O)N[C@@H](CC(N)=O)C(=O)N[C@@H](CC(C)C)C(=O)N[C@@H](Cc1c[nH]cn1)C(=O)N[C@@H](CCC(=O)O)C(=O)N[C@@H](CO)C(=O)N[C@@H](CC(C)C)C(=O)N[C@H](C(=O)N[C@@H](Cc1ccc(O)cc1)C(=O)N[C@@H](CC(C)C)C(=O)N[C@@H](CCC(N)=O)C(=O)N[C@@H](CCC(=O)O)C(=O)O)[C@@H](C)CC)C(C)C)[C@@H](C)CC)[C@@H](C)CC)C(C)C)C(C)C [#121] | ≤ 38 | > 10000 | approximately 15% | 720 | strong inhibition | < 1000 | 160 | –
CC[C@H](C)[C@H](NC(=O)CNC(=O)[C@H](CCCNC(=N)N)NC(=O)[C@@H](NC(=O)[C@H](CCC(N)=O)NC(=O)[C@H](CCCNC(=N)N)NC(=O)[C@H](CC(C)C)NC(=O)[C@H](CCCNC(=N)N)NC(=O)[C@@H](N)Cc1c[nH]cn1)[C@@H](C)CC)C(=O)N[C@@H](CCCNC(=N)N)C(=O)N[C@@H](C)C(=O)N[C@@H](CCCNC(=N)N)C(=O)N[C@H](C(=O)N[C@H](C(=O)N[C@@H](CCC(N)=O)C(=O)N[C@H](C(=O)N[C@@H](CCC(N)=O)C(=O)N[C@@H](CCCCN)C(=O)N[C@@H](CCC(=O)O)C(=O)N[C@H](C(=O)N[C@@H](Cc1c[nH]c2ccccc12)C(=O)N[C@@H](CCCNC(=N)N)C(=O)N[C@@H](CC(C)C)C(=O)N[C@@H](CC(N)=O)C(=O)N[C@@H](CCC(=O)O)C(=O)N[C@H](C(=O)N[C@@H](C)C(=O)N[C@@H](CCCCN)C(=O)N[C@@H](CC(C)C)C(=O)N[C@@H](CC(C)C)C(=O)N[C@@H](CC(N)=O)C(=O)N[C@@H](CCC(=O)O)C(=O)N[C@@H](CO)C(=O)N[C@@H](CC(C)C)C(=O)N[C@H](C(=O)N[C@@H](Cc1ccc(O)cc1)C(=O)N[C@@H](CC(C)C)C(=O)N[C@@H](CCC(N)=O)C(=O)N[C@@H](CCC(=O)O)C(=O)O)[C@@H](C)CC)C(C)C)[C@@H](C)CC)[C@@H](C)CC)C(C)C)C(C)C [#125] (H-HRLRQIRGIRARVVQIQKEIWRLNEVAKLLNESLIYLQE-OH) | – | – | 75% | 4400 | – | – | – | 460
